Assay results from the NIST ThermoML archive (doi:10.1016/j.jct.2016.03.030).
± gives the expanded uncertainty stated by the source.

Tests used:
[1] = Molar enthalpy of transition or fusion; conditions: DSC
[2] = for viscosity: 100 kPa, Liquid, Falling or rolling sphere viscometry
[3] = xn = mol fraction of the nth substance listed; conditions: 100 kPa, Liquid, x2 = 0; for viscosity: Falling or rolling sphere viscometry; for mass density: Vibrating tube method

Row | SMILES | Molar enthalpy of transition or fusion ([1]; Crystal 1) | Normal melting temperature ([2]; Crystal 1, DTA) | viscosity ([3]; 298.15 K) | viscosity ([3]; 303.15 K) | viscosity ([3]; 308.15 K) | viscosity ([3]; 313.15 K) | viscosity ([3]; 318.15 K) | mass density ([3]; 318.15 K) | viscosity ([3]; 323.15 K) | mass density ([3]; 323.15 K) | viscosity ([3]; 328.15 K) | mass density ([3]; 328.15 K) | viscosity ([3]; 333.15 K) | mass density ([3]; 333.15 K) | viscosity ([3]; 338.15 K) | mass density ([3]; 338.15 K) | viscosity ([3]; 343.15 K) | mass density ([3]; 343.15 K) | other results
1 | CCCCC[N+]1(C)CCCCC1.[Br-] [1-methyl-1-pentylpiperidinium bromide] | 2.11 ± 0.263 kcal/mol | 173.7 ± 0.41 °C | – | – | – | – | – | – | – | – | – | – | – | – | – | – | – | – | –
2 | CCCC[N+]1(C)CCOCC1.[Br-] [4-butyl-4-methylmorpholinium bromide] | 3.37 ± 0.263 kcal/mol | 211.32 ± 0.41 °C | – | – | – | – | – | – | – | – | – | – | – | – | – | – | – | – | –
3 | CCCCC[N+]1(C)CCOCC1.[Br-] [4-methyl-4-pentylmorpholinium bromide] | 1.94 ± 0.263 kcal/mol | 194 ± 0.41 °C | – | – | – | – | – | – | – | – | – | – | – | – | – | – | – | – | –
4 | CCC[N+]1(C)CCOCC1.[Br-] [4-methyl-4-propylmorpholinium bromide] | 2.72 ± 0.263 kcal/mol | 180.79 ± 0.41 °C | – | – | – | – | – | – | – | – | – | – | – | – | – | – | – | – | Molar enthalpy of transition or fusion ([1]; Crystal 2): 0.55 ± 0.239 kcal/mol; Triple point temperature ([2]; Crystal 2, DSC): 341.13 ± 0.77 K
5 | O [water] | – | – | – | – | – | – | – | – | – | – | – | – | – | – | – | – | – | – | viscosity ([2]; 298.15 K): 0.912 ± 0.091 mPa·s; viscosity ([2]; 303.15 K): 0.819 ± 0.082 mPa·s; viscosity ([2]; 308.15 K): 0.739 ± 0.074 mPa·s; viscosity ([2]; 313.15 K): 0.671 ± 0.067 mPa·s; viscosity ([2]; 318.15 K): 0.611 ± 0.061 mPa·s; viscosity ([2]; 323.15 K): 0.559 ± 0.056 mPa·s; viscosity ([2]; 328.15 K): 0.514 ± 0.052 mPa·s; viscosity ([2]; 333.15 K): 0.474 ± 0.048 mPa·s; viscosity ([2]; 338.15 K): 0.439 ± 0.044 mPa·s; viscosity ([2]; 343.15 K): 0.408 ± 0.041 mPa·s; Normal melting temperature ([2]; Crystal, visual observation): 0.00 ± 0.39 °C
6 | O [water] + CCCCC[N+]1(C)CCCCC1.[Br-] | – | – | 0.912 ± 0.091 mPa·s | 0.819 ± 0.082 mPa·s | 0.739 ± 0.074 mPa·s | 0.671 ± 0.067 mPa·s | 0.611 ± 0.061 mPa·s | 990.1 ± 1 kg/m3 | 0.559 ± 0.056 mPa·s | 987.9 ± 1 kg/m3 | 0.514 ± 0.052 mPa·s | 985.6 ± 1 kg/m3 | 0.474 ± 0.048 mPa·s | 983.2 ± 1 kg/m3 | 0.439 ± 0.044 mPa·s | 980.3 ± 1 kg/m3 | 0.408 ± 0.041 mPa·s | 978.1 ± 1 kg/m3 | –
7 | O [water] + CCCCC[N+]1(C)CCOCC1.[Br-] | – | – | 0.912 ± 0.091 mPa·s | 0.819 ± 0.082 mPa·s | 0.739 ± 0.074 mPa·s | 0.671 ± 0.067 mPa·s | 0.611 ± 0.061 mPa·s | 990.1 ± 1 kg/m3 | 0.559 ± 0.056 mPa·s | 987.9 ± 1 kg/m3 | 0.514 ± 0.052 mPa·s | 985.6 ± 1 kg/m3 | 0.474 ± 0.048 mPa·s | 983.2 ± 1 kg/m3 | 0.439 ± 0.044 mPa·s | 980.3 ± 1 kg/m3 | 0.408 ± 0.041 mPa·s | 978.1 ± 1 kg/m3 | –
8 | O [water] + CCCC[N+]1(C)CCOCC1.[Br-] | – | – | 0.912 ± 0.091 mPa·s | 0.819 ± 0.082 mPa·s | 0.739 ± 0.074 mPa·s | 0.671 ± 0.067 mPa·s | 0.611 ± 0.061 mPa·s | 990.1 ± 1 kg/m3 | 0.559 ± 0.056 mPa·s | 987.9 ± 1 kg/m3 | 0.514 ± 0.052 mPa·s | 985.6 ± 1 kg/m3 | 0.474 ± 0.048 mPa·s | 983.2 ± 1 kg/m3 | 0.439 ± 0.044 mPa·s | 980.3 ± 1 kg/m3 | 0.408 ± 0.041 mPa·s | 978.1 ± 1 kg/m3 | –
9 | O [water] + CCC[N+]1(C)CCOCC1.[Br-] | – | – | 0.912 ± 0.091 mPa·s | 0.819 ± 0.082 mPa·s | 0.739 ± 0.074 mPa·s | 0.671 ± 0.067 mPa·s | 0.611 ± 0.061 mPa·s | 990.1 ± 1 kg/m3 | 0.559 ± 0.056 mPa·s | 987.9 ± 1 kg/m3 | 0.514 ± 0.052 mPa·s | 985.6 ± 1 kg/m3 | 0.474 ± 0.048 mPa·s | 983.2 ± 1 kg/m3 | 0.439 ± 0.044 mPa·s | 980.3 ± 1 kg/m3 | 0.408 ± 0.041 mPa·s | 978.1 ± 1 kg/m3 | –
